# System: Cochliobolus miyabeanus
# Assay: activity against brown spot of rice caused by Cochliobolus miyabeanus, protective application (potted rice seedlings)
# Assay type: in vivo
# Settings: individual active compound, rice cultivar Tai-Nong 67, protective spray, evaluated after six days
# Description: The active compounds, separately or jointly, were prepared as a stock solution with 0.25% by weight of active compound in acetone or DMSO. 1% by weight of the emulsifier Uniperol® EL (wetting agent having emulsifying and dispersing action based on ethoxylated alkylphenols) was added to this solution, and the solution was diluted with water to the desired concentration.
# Use example—activity against brown spot of rice caused by Cochliobolus miyabeanus, protective application
# Leaves of potted rice seedlings of the cultivar “Tai-Nong 67” were sprayed to runoff point with an aqueous suspension of the concentration of active compound stated below. The next day, the plants were inoculated with an aqueous spore suspension of Cochliobolus miyabeanus. The test plants were then placed in climatized chambers at 22-24° C. and 95-99% relative atmospheric humidity for six days. The extent of the development of the infection on the leaves was then determined visually.
# Evaluation was carried out by determining the percentage of infected leaf area. These percentages were converted into efficacies.
# The efficacy (E) is calculated as follows using Abbot's formula: E=(1−α/β)·100 • α corresponds to the fungicidal infection of the treated plants in % and • β corresponds to the fungicidal infection of the untreated (control) plants in %
# An efficacy of 0 means that the infection level of the treated plants corresponds to that of the untreated control plants; an efficacy of 100 means that the treated plants were not infected.
# The expected efficacies of mixtures of active compounds are determined using Colby's formula (R. S. Colby, Weeds, 15, 20-22, 1967) and compared with the observed efficacies.
# Colby's formula: E=x+y−x·y/100 • E expected efficacy, expressed in % of the untreated control, when using the mixture of the active compounds A and B at the concentrations a and b • x efficacy, expressed in % of the untreated control, when using the active compound A at the concentration a • y efficacy, expressed in % of the untreated control, when using the active compound B at the concentration b
smiles,measurement,setting,value
"CC1CCN(c2c(-c3c(F)cc(F)cc3F)c(Cl)nc3ncnn23)CC1 [I, 5-chloro-7-(4-methylpiperidin-1-yl)-6-(2,4,6-trifluorophenyl)-[1,2,4]tri-azolo[1,5-a]pyrimidine]",Efficacy in % of the untreated control,1 ppm in the spray liquor,4%
same,Efficacy in % of the untreated control,4 ppm in the spray liquor,28%
"S1SSSSSSS1 [II (sulfur), sulfur]",Efficacy in % of the untreated control,1 ppm in the spray liquor,4%
same,Efficacy in % of the untreated control,4 ppm in the spray liquor,4%
CC1CCN(c2c(-c3c(F)cccc3F)c(Cl)nc3ncnn23)CC1 [comparative compound A],Efficacy in % of the untreated control,1 ppm in the spray liquor,28%
same,Efficacy in % of the untreated control,4 ppm in the spray liquor,40%
C[C@H](Nc1c(-c2c(F)cc(F)cc2F)c(Cl)nc2ncnn12)C(F)(F)F [comparative compound B],Efficacy in % of the untreated control,1 ppm in the spray liquor,0%
same,Efficacy in % of the untreated control,4 ppm in the spray liquor,16%
